From patent US7612084B2, “Amine derivatives for the treatment of asthma and COPD” (Pfizer Inc, priority 2006, dated 2009)

What was measured:
[1] = target: human adrenergic B2 receptor (Homo sapiens, UniProt P07550); experiment: Whole cell luciferase reporter assay in CHO cells expressing the hB2 receptor (agonist potency); type: cell-based; details: 4 h incubation, read-out: EC50 - beta2
Protocol: Functional Assessment of Agonist Potency and Efficacy Using a Whole Cell Luciferase Reporter Assay in CHO Cells Expressing the hB2 Receptor.
CHO (Chinese Hamster Ovary) cells recombinantly expressing the human adrenergic B2 receptor and transfected with a luciferase enzyme reporter gene were maintained in growth media composed of F12:DMEM (Sigma D6421) containing 10% Foetal Bovine Serum (FBS: Sigma F03921) 10 μg/ml puromycin (Sigma N277698), 0.5 mg/ml Geneticin G418 (Sigma G7034) and 2 mM L-glutamine (Sigma G7513). The cells were kept in sterile conditions at 37° C., in an atmosphere containing 5% CO2.
hB2 Luciferase Assay Protocol
Cells were harvested for assay when they reached 80-90% confluency using enzyme free cell Dissociation Solution (Life technologies 13151-014) incubated with the cells for 5 min at 37° C. in an atmosphere containing 5% CO2. Detached cells were collected in warmed growth media (composition described above), and re-suspended in assay media (F12:DMEM (Sigma D6421) containing 1% Foetal Bovine Serum (FBS: Sigma F03921), 10 μg/ml puromycin (Sigma N277698), 0.5 mg/ml Geneticin G418 (Sigma G7034) and 2 mM L-glutamine (Sigma G7513))to give a viable cell concentration of 1×10^6 cells/ml. 10 ul of this suspension was added to each well of a tissue culture treated low volume 384 well plate (Greiner788073) and the plate incubated in an atmosphere containing 5% CO2 at 37° C. for 2 h. Concentration ranges of test compounds were prepared in phosphate Buffered Saline containing 0.05% pluronic-F127 (Sigma P2443) and 2.5% DMSO. 2 μl of each test concentration were added to the appropriate 384 plate well and returned to the incubator for a further 4 h. At the end of the incubation period 4 μl of Steady-Glo reagent (Steady-Glo Luciferase assay system (Promega E2520) was added to each well and the plate read immediately in a Leadseeker Plate reader (Amersham Bioscience) using a 660 nm filter. Concentration effect curves were plotted and EC50 values generated using a 4-parameter sigmoid fit using an in-house data analysis programme. Isoprenaline was run in every assay as a reference standard.

[2] = target: human muscarinic M3 receptor (Homo sapiens, UniProt P20309); experiment: Whole cell β-lactamase reporter assay in CHO cells expressing the hM3 receptor (antagonist activity); type: cell-based; details: 80 nM carbamyl choline, IC50 converted to Ki by Cheng-Prusoff
Protocol: Functional Assessment of Antagonist Activity Using a Whole Cell β-Lactamase Reporter Assay in CHO Cells Expressing the hM3 Receptor.
CHO (Chinese Hamster Ovary) cells recombinantly expressing the human muscarinic M3 receptor were transfected with the NFAT_β-Lac_Zeo plasmid. Cells were grown in DMEM with Glutamax-1, supplemented with 25 mM HEPES(Life Technologies 32430-027), containing 10% FCS (Foetal Calf Serum; Sigma F-7524), […] Sodium pyruvate (Sigma S-8636), NEAA (non-Essential Amino Acids; Invitrogen 11140-035) and […] Zeocin (Invitrogen R250-01).
Cells were harvested for assay when they reached 80-90% confluency using enzyme free cell Dissociation Solution (Life technologies 13151-014) incubated with the cells for 5 min at 37° C. in an atmosphere containing 5% CO2. Detached cells were collected in warmed growth media and centrifuged at 200 rpm for 10 min, washed in PBS (Phosphate Buffered Saline; Life Technologies 14190-094) and centrifuged again as just described. The cells were re-suspended at 2×10^5 cells/ml in growth medium (composition as described above). 20 μl of this cell suspension was added to each well of a 384 well black clear bottomed plate (Greiner Bio One 781091-PFI). The assay buffer used was PBS supplemented with 0.05% Pluronic F-127 (Sigma 9003-11-6) and 2.5% DMSO. Muscarinic M3 receptor signalling was stimulated using 80 nM carbamyl choline (Aldrich N240-9) incubated with the cells for 4 h at 37° C./5% CO2 and monitored at the end of the incubation period using a Tecan SpectraFluor+plate reader (λ−excitation 405 nm, emission 450 nm and 503 nm). Compounds under test were added to the assay at the beginning of the 4 h incubation period and compound activity measured as the concentration dependent inhibition of the carbamyl choline induced signal. Inhibition curves were plotted and IC50 values generated using a 4-parameter sigmoid fit and converted to Ki values using the Cheng-Prusoff correction and the KD value for carbamyl choline in the assay.

human muscarinic M3 receptor, sequence (P20309 whole entry): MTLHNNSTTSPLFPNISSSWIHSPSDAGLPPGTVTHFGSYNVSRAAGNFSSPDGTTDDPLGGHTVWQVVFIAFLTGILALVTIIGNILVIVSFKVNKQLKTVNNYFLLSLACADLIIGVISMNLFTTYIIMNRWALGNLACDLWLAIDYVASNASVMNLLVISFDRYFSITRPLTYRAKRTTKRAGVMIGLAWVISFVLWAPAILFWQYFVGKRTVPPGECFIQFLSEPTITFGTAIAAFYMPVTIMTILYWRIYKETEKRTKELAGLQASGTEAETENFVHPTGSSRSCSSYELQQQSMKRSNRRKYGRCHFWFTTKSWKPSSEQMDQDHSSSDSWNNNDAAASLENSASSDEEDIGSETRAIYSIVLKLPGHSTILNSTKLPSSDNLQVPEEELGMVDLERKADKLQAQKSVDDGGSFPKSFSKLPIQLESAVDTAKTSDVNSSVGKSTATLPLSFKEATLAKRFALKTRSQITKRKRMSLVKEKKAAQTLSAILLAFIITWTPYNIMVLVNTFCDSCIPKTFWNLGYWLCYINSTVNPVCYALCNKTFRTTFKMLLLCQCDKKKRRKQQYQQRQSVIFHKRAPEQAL
human adrenergic B2 receptor, sequence (P07550 whole entry): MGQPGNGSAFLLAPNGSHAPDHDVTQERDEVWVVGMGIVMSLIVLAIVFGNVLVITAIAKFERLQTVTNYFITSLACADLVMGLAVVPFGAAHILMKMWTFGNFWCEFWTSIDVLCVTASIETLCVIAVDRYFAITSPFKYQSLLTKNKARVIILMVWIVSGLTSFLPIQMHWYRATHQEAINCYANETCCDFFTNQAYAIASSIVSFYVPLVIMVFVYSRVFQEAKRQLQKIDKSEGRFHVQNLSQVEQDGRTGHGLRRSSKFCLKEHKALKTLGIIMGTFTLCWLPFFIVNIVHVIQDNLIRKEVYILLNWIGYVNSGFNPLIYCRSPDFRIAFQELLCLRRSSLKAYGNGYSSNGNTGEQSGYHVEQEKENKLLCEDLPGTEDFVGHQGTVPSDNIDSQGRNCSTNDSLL

| EC50 [1] | Ki [2] | Structure (SMILES) |
| --- | --- | --- |
| 0.88 nM | 3.4 nM | CC(C)N(CC[C@H](c1ccccc1)c1cc(CCCCCCCCCCNC[C@H](O)c2ccc(O)c(NS(C)(=O)=O)c2)ccc1O)C(C)C [Example 1, N-(5-{(1R)-2-[(10-{3-[(1R)-3-(diisopropylamino)-1-phenylpropyl]-4-hydroxyphenyl}decyl)amino]-1-hydroxyethyl}-2-hydroxyphenyl)methanesulfonamide] |
| 0.32 nM | 1.1 nM | CC(C)N(CC[C@H](c1ccccc1)c1cc(CCCOc2ccc(CCNC[C@H](O)c3ccc(O)c(NS(C)(=O)=O)c3)cc2)ccc1O)C(C)C [Example 2, N-{5-[(1R)-2-({2-[4-(3-{3-[(1R)-3-(diisopropylamino)-1-phenylpropyl]-4-hydroxyphenyl}propoxy)phenyl]ethyl}amino)-1-hydroxyethyl]-2-hydroxyphenyl}methanesulfonamide] |
| 1.3 nM | 0.28 nM | CC(C)N(CC[C@H](c1ccccc1)c1cc(OCCCCCCCNC[C@H](O)c2ccc(O)c(NS(C)(=O)=O)c2)ccc1O)C(C)C [Example 4, N-(5-{(1R)-2-[(7-{3-[(1R)-3-(diisopropylamino)-1-phenylpropyl]-4-hydroxyphenoxy}heptyl)amino]-1-hydroxyethyl}-2-hydroxyphenyl)methanesulfonamide] |
| 4.8 nM | 1.1 nM | CC(C)N(CC[C@H](c1ccccc1)c1cc(CCCCOc2ccc(CCNC[C@H](O)c3cc(O)cc(O)c3)cc2)ccc1O)C(C)C [Example 9] |
| 0.26 nM | 1.1 nM | CC(C)N(CC[C@H](c1ccccc1)c1cc(CCOc2cccc(CCNC[C@H](O)c3ccc(O)c(NS(C)(=O)=O)c3)c2)ccc1O)C(C)C [Example 10, N-{5-[(1R)-2-({2-[3-(2-{3-[(1R)-3-(diisopropylamino)-1-phenylpropyl]-4-hydroxyphenyl}ethoxy)phenyl]ethyl}amino)-1-hydroxyethyl]-2-hydroxyphenyl}methanesulfonamide] |
| 2.2 nM | 1.5 nM | CC(C)N(CC[C@H](c1ccccc1)c1cc(CCOc2cccc(CCNC[C@H](O)c3ccc(O)c(CO)c3)c2)ccc1O)C(C)C [Example 11, 2-[(1R)-3-(diisopropylamino)-1-phenylpropyl]-4-(2-{3-[2-({(2R)-2-hydroxy-2-[4-hydroxy-3-(hydroxymethyl)phenyl]ethyl}amino)ethyl]phenoxy}ethyl)phenol] |
| 13.8 nM | 0.26 nM | CC(C)N(CC[C@H](c1ccccc1)c1cc(CCOc2ccc(CCNC[C@H](O)c3cc(O)cc(O)c3)cc2)ccc1O)C(C)C [Example 12, 5-[(1R)-2-({2-[4-(2-{3-[(1R)-3-(diisopropylamino)-1-phenylpropyl]-4-hydroxyphenyl}ethoxy)phenyl]ethyl}amino)-1-hydroxyethyl]benzene-1,3-diol] |
| 0.078 nM | 0.38 nM | CC(C)N(CC[C@H](c1ccccc1)c1cc(CCOc2ccc(CCNC[C@H](O)c3ccc(O)c(NC=O)c3)cc2)ccc1O)C(C)C [Example 13, N-{5-[(1R)-2-({2-[4-(2-{3-[(1R)-3-(diisopropylamino)-1-phenylpropyl]-4-hydroxyphenyl}ethoxy)phenyl]ethyl}amino)-1-hydroxyethyl]-2-hydroxyphenyl}formamide] |
| 0.054 nM | 0.76 nM | CC(C)N(CC[C@H](c1ccccc1)c1cc(CCOc2ccc(CCNC[C@H](O)c3ccc(O)c4[nH]c(=O)ccc34)cc2)ccc1O)C(C)C [Example 14, 5-[(1R)-2-({2-[4-(2-{3-[(1R)-3-(diisopropylamino)-1-phenylpropyl]-4-hydroxyphenyl}ethoxy)phenyl]ethyl}amino)-1-hydroxyethyl]-8-hydroxyquinolin-2(1H)-one] |
| 0.25 nM | 0.06 nM | CC(C)N(CC[C@H](c1ccccc1)c1cc(CCOc2ccc(CCNC[C@H](O)c3ccc(O)c(CO)c3)cc2)ccc1O)C(C)C [Example 15, 2-[(1R)-3-(diisopropylamino)-1-phenylpropyl]-4-(2-{4-[2-({(2R)-2-hydroxy-2-[4-hydroxy-3-(hydroxymethyl)phenyl]ethyl}amino)ethyl]phenoxy}ethyl)phenol] |
| 1.3 nM | 2 nM | CC(C)N(CC[C@H](c1ccccc1)c1cc(CCCCCCCCNC[C@H](O)c2ccc(O)c(NS(C)(=O)=O)c2)ccc1O)C(C)C [Example 16, N-(5-{(1R)-2-[(8-{3-[(1R)-3-(diisopropylamino)-1-phenylpropyl]-4-hydroxyphenyl}octyl)amino]-1-hydroxyethyl}-2-hydroxyphenyl)methanesulfonamide] |
| 0.57 nM | 3 nM | CC(C)N(CC[C@H](c1ccccc1)c1cc(CCCCCOc2ccc(CCNC[C@H](O)c3ccc(O)c(NS(C)(=O)=O)c3)cc2)ccc1O)C(C)C [Example 17, N-(5-{(1R)-2-[(2-{4-[(5-{3-[(1R)-3-(diisopropylamino)-1-phenylpropyl]-4-hydroxyphenyl}pentyl)oxy]phenyl}ethyl)amino]-1-hydroxyethyl}-2-hydroxyphenyl)methanesulfonamide] |
| 0.22 nM |  | CC(C)N(CC[C@H](c1ccccc1)c1cc(CCCCOc2ccc(CCNC[C@H](O)c3ccc(O)c(CO)c3)cc2)ccc1O)C(C)C [Example 18, 2-[(1R)-3-(diisopropylamino)-1-phenylpropyl]-4-(4-{4-[2-({(2R)-2-hydroxy-2-[4-hydroxy-3-(hydroxymethyl)phenyl]ethyl}amino)ethyl]phenoxy}butyl)phenol] |

| Structure (SMILES) | EC50 [1] | Ki [2] |
| --- | --- | --- |
| CC(C)N(CC[C@H](c1ccccc1)c1cc(CCCCOc2ccc(CCNC[C@H](O)c3ccc(O)c(NS(C)(=O)=O)c3)cc2)ccc1O)C(C)C [Example 3, N-{5-[(1R)-2-({2-[4-(4-{3-[(1R)-3-(Diisopropylamino)-1-phenylpropyl]-4-hydroxyphenyl}butoxy)phenyl]ethyl}amino)-1-hydroxyethyl]-2-hydroxyphenyl}methanesulfonamide] | 0.14 nM | 1.4 nM |
| CC(C)N(CC[C@H](c1ccccc1)c1cc(CCCCOCCCCCCNC[C@H](O)c2ccc(O)c(NS(C)(=O)=O)c2)ccc1O)C(C)C [Example 6, N-{5-[(1R)-2-{[6-(4-{3-[(1R)-3-(Diisopropylamino)-1-phenylpropyl]-4-hydroxyphenyl}butoxy)hexyl]amino}-1-hydroxyethyl]-2-hydroxyphenyl}methanesulfonamide] | 0.19 nM | 2.4 nM |
| CC(C)N(CC[C@H](c1ccccc1)c1cc(CCCCOc2ccc(CCNC[C@H](O)c3ccc(O)c(NC=O)c3)cc2)ccc1O)C(C)C [Example 7, N-{5-[(1R)-2-({2-[4-(4-{3-[(1R)-3-(diisopropylamino)-1-phenylpropyl]-4-hydroxyphenyl}butoxy)phenyl]ethyl}amino)-1-hydroxyethyl]-2-hydroxyphenyl}formamide] | 0.049 nM | 2.1 nM |
| CC(C)N(CC[C@H](c1ccccc1)c1cc(CCCCOc2ccc(CCNC[C@H](O)c3ccc(O)c4[nH]c(=O)ccc34)cc2)ccc1O)C(C)C [Example 8, 5-[(1R)-2-({2-[4-(4-{3-[(1R)-3-(diisopropylamino)-1-phenylpropyl]-4-hydroxyphenyl}butoxy)phenyl]ethyl}amino)-1-hydroxyethyl]-8-hydroxyquinolin-2(1H)-one] | 0.035 nM |  |
